{
  "source": "patent US11419806B2",
  "about": "“Prebiotic oral care methods using a saccharide” (Colgate-Palmolive Company, priority 2013, dated 2022)",
  "assay_in_all_cases": "Twenty-four hour optical density growth in BHI",
  "format_in_all_cases": "cell-based",
  "key": {"Actinomyces naeslundii": {"system": "Actinomyces naeslundii", "details": "A naeslundii", "outline": "(§1)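 OD630 at 0 h and 24 h; BHI, 37° C, anaerobic; inoculum 1×10^7 CFU/ml; myo-inositol, D-lactitol, D-turanose, N-acetyl-D-mannosamine at 5, 10, 20, 25 μmol/ml final; saccharide-free control. 3 biological × 4 technical replicates, mean of daily means.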"}, "Actinomyces viscosus": {"system": "Actinomyces viscosus", "details": "A viscosus", "outline": "as §1"}, "[1]": {"system": "Aggregatibacter actinomycetemcomitans", "details": "A actinomycetemcomitans"}, "Capnocytophaga sputigena": {"system": "Capnocytophaga sputigena", "details": "C sputigena", "outline": "as §1"}, "Fusobacterium nucleatum": {"system": "Fusobacterium nucleatum", "details": "F nucleatum", "outline": "as §1"}, "S. sanguinis": {"system": "S. sanguinis"}, "Streptococcus gordonii": {"system": "Streptococcus gordonii", "details": "S gordonii"}, "Streptococcus mitis": {"system": "Streptococcus mitis", "details": "S mitis"}, "Streptococcus mutans": {"system": "Streptococcus mutans", "details": "S mutans"}, "Streptococcus salivarius": {"system": "Streptococcus salivarius", "details": "S salivarius"}, "Streptococcus sobrinus": {"system": "Streptococcus sobrinus", "details": "S sobrinus"}, "Tannerella forsythia": {"system": "Tannerella forsythia", "details": "T forsythia", "outline": "as §1"}, "Veillonella parvula": {"system": "Veillonella parvula", "details": "V parvula", "outline": "as §1"}},
  "data": [
    {"smiles": "O[C@H]1[C@H](O)[C@@H](O)[C@H](O)[C@@H](O)[C@H]1O", "note": "[Myo-Inositol, (1R,2R,3S,4S,5R,6S)-cyclohexane-1,2,3,4,5,6-hexol]", "values": [
      {"measurement": "extent of growth: maximal OD630 over 24 hr divided by maximal OD of control (control = 1)", "setting": "Actinomyces naeslundii; 5 μmol/ml", "result": 1.0172},
      {"measurement": "extent of growth: maximal OD630 over 24 hr divided by maximal OD of control (control = 1)", "setting": "Actinomyces naeslundii; 10 μmol/ml", "result": 1.0190},
      {"measurement": "extent of growth: maximal OD630 over 24 hr divided by maximal OD of control (control = 1)", "setting": "Actinomyces naeslundii; 20 μmol/ml", "result": 1.0051},
      {"measurement": "extent of growth: maximal OD630 over 24 hr divided by maximal OD of control (control = 1)", "setting": "Actinomyces naeslundii; 25 μmol/ml", "result": 1.0000},
      {"measurement": "extent of growth: maximal OD630 over 24 hr divided by maximal OD of control (control = 1)", "setting": "Actinomyces viscosus; 5 μmol/ml", "result": 0.8442},
      {"measurement": "extent of growth: maximal OD630 over 24 hr divided by maximal OD of control (control = 1)", "setting": "Actinomyces viscosus; 10 μmol/ml", "result": 0.8574},
      {"measurement": "extent of growth: maximal OD630 over 24 hr divided by maximal OD of control (control = 1)", "setting": "Actinomyces viscosus; 20 μmol/ml", "result": 0.8079},
      {"measurement": "extent of growth: maximal OD630 over 24 hr divided by maximal OD of control (control = 1)", "setting": "Actinomyces viscosus; 25 μmol/ml", "result": 0.7647},
      {"measurement": "extent of growth: maximal OD630 over 24 hr divided by maximal OD of control (control = 1)", "setting": "[1]; 5 μmol/ml", "result": 0.6977},
      {"measurement": "extent of growth: maximal OD630 over 24 hr divided by maximal OD of control (control = 1)", "setting": "[1]; 10 μmol/ml", "result": 0.7107},
      {"measurement": "extent of growth: maximal OD630 over 24 hr divided by maximal OD of control (control = 1)", "setting": "[1]; 20 μmol/ml", "result": 0.7396},
      {"measurement": "extent of growth: maximal OD630 over 24 hr divided by maximal OD of control (control = 1)", "setting": "[1]; 25 μmol/ml", "result": 0.7361},
      {"measurement": "extent of growth: maximal OD630 over 24 hr divided by maximal OD of control (control = 1)", "setting": "Capnocytophaga sputigena; 5 μmol/ml", "result": 0.8701},
      {"measurement": "extent of growth: maximal OD630 over 24 hr divided by maximal OD of control (control = 1)", "setting": "Capnocytophaga sputigena; 10 μmol/ml", "result": 0.8749},
      {"measurement": "extent of growth: maximal OD630 over 24 hr divided by maximal OD of control (control = 1)", "setting": "Capnocytophaga sputigena; 20 μmol/ml", "result": 0.8545},
      {"measurement": "extent of growth: maximal OD630 over 24 hr divided by maximal OD of control (control = 1)", "setting": "Capnocytophaga sputigena; 25 μmol/ml", "result": 0.8789},
      {"measurement": "extent of growth: maximal OD630 over 24 hr divided by maximal OD of control (control = 1)", "setting": "Fusobacterium nucleatum; 5 μmol/ml", "result": 0.9430},
      {"measurement": "extent of growth: maximal OD630 over 24 hr divided by maximal OD of control (control = 1)", "setting": "Fusobacterium nucleatum; 10 μmol/ml", "result": 0.9489},
      {"measurement": "extent of growth: maximal OD630 over 24 hr divided by maximal OD of control (control = 1)", "setting": "Fusobacterium nucleatum; 20 μmol/ml", "result": 0.9512},
      {"measurement": "extent of growth: maximal OD630 over 24 hr divided by maximal OD of control (control = 1)", "setting": "Fusobacterium nucleatum; 25 μmol/ml", "result": 0.9518},
      {"measurement": "extent of growth: maximal OD630 over 24 hr divided by maximal OD of control (control = 1)", "setting": "S. sanguinis; 5 μmol/ml", "result": 0.9429},
      {"measurement": "extent of growth: maximal OD630 over 24 hr divided by maximal OD of control (control = 1)", "setting": "S. sanguinis; 10 μmol/ml", "result": 0.9536},
      {"measurement": "extent of growth: maximal OD630 over 24 hr divided by maximal OD of control (control = 1)", "setting": "S. sanguinis; 20 μmol/ml", "result": 0.8540},
      {"measurement": "extent of growth: maximal OD630 over 24 hr divided by maximal OD of control (control = 1)", "setting": "S. sanguinis; 25 μmol/ml", "result": 0.9077},
      {"measurement": "extent of growth: maximal OD630 over 24 hr divided by maximal OD of control (control = 1)", "setting": "Streptococcus gordonii; 5 μmol/ml", "result": 0.9888},
      {"measurement": "extent of growth: maximal OD630 over 24 hr divided by maximal OD of control (control = 1)", "setting": "Streptococcus gordonii; 10 μmol/ml", "result": 0.9732},
      {"measurement": "extent of growth: maximal OD630 over 24 hr divided by maximal OD of control (control = 1)", "setting": "Streptococcus gordonii; 20 μmol/ml", "result": 0.9751},
      {"measurement": "extent of growth: maximal OD630 over 24 hr divided by maximal OD of control (control = 1)", "setting": "Streptococcus gordonii; 25 μmol/ml", "result": 0.9954},
      {"measurement": "extent of growth: maximal OD630 over 24 hr divided by maximal OD of control (control = 1)", "setting": "Streptococcus mitis; 5 μmol/ml", "result": 0.9921},
      {"measurement": "extent of growth: maximal OD630 over 24 hr divided by maximal OD of control (control = 1)", "setting": "Streptococcus mitis; 10 μmol/ml", "result": 0.9622},
      {"measurement": "extent of growth: maximal OD630 over 24 hr divided by maximal OD of control (control = 1)", "setting": "Streptococcus mitis; 20 μmol/ml", "result": 0.8975},
      {"measurement": "extent of growth: maximal OD630 over 24 hr divided by maximal OD of control (control = 1)", "setting": "Streptococcus mitis; 25 μmol/ml", "result": 0.8423},
      {"measurement": "extent of growth: maximal OD630 over 24 hr divided by maximal OD of control (control = 1)", "setting": "Streptococcus mutans; 5 μmol/ml", "result": 1.1065},
      {"measurement": "extent of growth: maximal OD630 over 24 hr divided by maximal OD of control (control = 1)", "setting": "Streptococcus mutans; 10 μmol/ml", "result": 1.0553},
      {"measurement": "extent of growth: maximal OD630 over 24 hr divided by maximal OD of control (control = 1)", "setting": "Streptococcus mutans; 20 μmol/ml", "result": 0.9645},
      {"measurement": "extent of growth: maximal OD630 over 24 hr divided by maximal OD of control (control = 1)", "setting": "Streptococcus mutans; 25 μmol/ml", "result": 0.9449},
      {"measurement": "extent of growth: maximal OD630 over 24 hr divided by maximal OD of control (control = 1)", "setting": "Streptococcus salivarius; 5 μmol/ml", "result": 0.9359},
      {"measurement": "extent of growth: maximal OD630 over 24 hr divided by maximal OD of control (control = 1)", "setting": "Streptococcus salivarius; 10 μmol/ml", "result": 0.9395},
      {"measurement": "extent of growth: maximal OD630 over 24 hr divided by maximal OD of control (control = 1)", "setting": "Streptococcus salivarius; 20 μmol/ml", "result": 0.9136},
      {"measurement": "extent of growth: maximal OD630 over 24 hr divided by maximal OD of control (control = 1)", "setting": "Streptococcus salivarius; 25 μmol/ml", "result": 0.8905},
      {"measurement": "extent of growth: maximal OD630 over 24 hr divided by maximal OD of control (control = 1)", "setting": "Streptococcus sobrinus; 5 μmol/ml", "result": 0.9301},
      {"measurement": "extent of growth: maximal OD630 over 24 hr divided by maximal OD of control (control = 1)", "setting": "Streptococcus sobrinus; 10 μmol/ml", "result": 0.9360},
      {"measurement": "extent of growth: maximal OD630 over 24 hr divided by maximal OD of control (control = 1)", "setting": "Streptococcus sobrinus; 20 μmol/ml", "result": 0.9087},
      {"measurement": "extent of growth: maximal OD630 over 24 hr divided by maximal OD of control (control = 1)", "setting": "Streptococcus sobrinus; 25 μmol/ml", "result": 0.9224},
      {"measurement": "extent of growth: maximal OD630 over 24 hr divided by maximal OD of control (control = 1)", "setting": "Tannerella forsythia; 5 μmol/ml", "result": 0.9323},
      {"measurement": "extent of growth: maximal OD630 over 24 hr divided by maximal OD of control (control = 1)", "setting": "Tannerella forsythia; 10 μmol/ml", "result": 0.9359},
      {"measurement": "extent of growth: maximal OD630 over 24 hr divided by maximal OD of control (control = 1)", "setting": "Tannerella forsythia; 20 μmol/ml", "result": 0.9286},
      {"measurement": "extent of growth: maximal OD630 over 24 hr divided by maximal OD of control (control = 1)", "setting": "Tannerella forsythia; 25 μmol/ml", "result": 0.9460},
      {"measurement": "extent of growth: maximal OD630 over 24 hr divided by maximal OD of control (control = 1)", "setting": "Veillonella parvula; 5 μmol/ml", "result": 0.9050},
      {"measurement": "extent of growth: maximal OD630 over 24 hr divided by maximal OD of control (control = 1)", "setting": "Veillonella parvula; 10 μmol/ml", "result": 0.9049},
      {"measurement": "extent of growth: maximal OD630 over 24 hr divided by maximal OD of control (control = 1)", "setting": "Veillonella parvula; 20 μmol/ml", "result": 0.8987},
      {"measurement": "extent of growth: maximal OD630 over 24 hr divided by maximal OD of control (control = 1)", "setting": "Veillonella parvula; 25 μmol/ml", "result": 0.8933}
    ]}
  ]
}
